Measurements published in ChEMBL document CHEMBL1140163 (J Med Chem, 2008).

How the values were obtained:
[1] = molecular target: Mast/stem cell growth factor receptor Kit (Homo sapiens, UniProt P10721); experiment: Inhibition of cKit
[2] = molecular target: Mitogen-activated protein kinase 8 (Homo sapiens, UniProt P45983); experiment: Inhibition of JNK1
[3] = molecular target: Mitogen-activated protein kinase 9 (Homo sapiens, UniProt P45984); experiment: Inhibition of JNK2
[4] = molecular target: Mitogen-activated protein kinase 10 (Homo sapiens, UniProt P53779); experiment: Inhibition of JNK3
Chain of Mitogen-activated protein kinase 10 (P53779 whole entry): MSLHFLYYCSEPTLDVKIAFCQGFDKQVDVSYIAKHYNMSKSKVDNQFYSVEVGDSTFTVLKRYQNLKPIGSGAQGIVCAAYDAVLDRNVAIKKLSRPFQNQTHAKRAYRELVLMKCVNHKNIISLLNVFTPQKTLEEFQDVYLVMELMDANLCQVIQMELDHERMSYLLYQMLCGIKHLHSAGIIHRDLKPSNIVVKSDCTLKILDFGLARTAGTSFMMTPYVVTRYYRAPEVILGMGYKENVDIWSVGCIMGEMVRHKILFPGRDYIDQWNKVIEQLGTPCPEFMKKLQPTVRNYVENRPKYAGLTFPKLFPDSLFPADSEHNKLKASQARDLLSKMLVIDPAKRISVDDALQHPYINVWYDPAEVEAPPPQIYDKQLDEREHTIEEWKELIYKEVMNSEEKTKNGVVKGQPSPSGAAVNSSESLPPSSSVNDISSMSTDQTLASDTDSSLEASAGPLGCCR

THP-1 = experiment: Inhibition of LPS-induced TNFalpha production in human THP1 cells; type: functional, cell-based
Blood = experiment: Inhibition of TNF-alpha-induced IL8 production in human whole blood cells; type: functional, cell-based
[5] = Permeability from apical to basolateral side of human Caco-2 cells; type: ADME, cell-based
[6] = Permeability from basolateral to apical side of human Caco-2 cells; type: ADME, cell-based
[7] = Clearance in Sprague-Dawley rat 2 mg/kg, iv; type: ADME, organism-based; parameters: dose 2 mg/kg, route intravenous; details: in vivo
[8] = Volume of distribution at steady state in Sprague-Dawley rat 2 mg/kg, iv; type: ADME, organism-based; parameters: dose 2 mg/kg, route intravenous; details: in vivo, read-out: Vdss
[9] = Half life in Sprague-Dawley rat 2 mg/kg, iv; type: ADME, organism-based; parameters: dose 2 mg/kg, route intravenous; details: in vivo
[10] = AUC (0 to infinity) in Sprague-Dawley rat 10 mg/kg, po; type: ADME, organism-based; parameters: dose 10 mg/kg, route oral, time infinity; details: plasma
[11] = Oral bioavailability in Sprague-Dawley rat 10 mg/kg; type: ADME, organism-based; details: in vivo
[12] = molecular target: Mitogen-activated protein kinase 14 (Homo sapiens, UniProt Q16539)
Chain of Mitogen-activated protein kinase 14 (Q16539 whole entry): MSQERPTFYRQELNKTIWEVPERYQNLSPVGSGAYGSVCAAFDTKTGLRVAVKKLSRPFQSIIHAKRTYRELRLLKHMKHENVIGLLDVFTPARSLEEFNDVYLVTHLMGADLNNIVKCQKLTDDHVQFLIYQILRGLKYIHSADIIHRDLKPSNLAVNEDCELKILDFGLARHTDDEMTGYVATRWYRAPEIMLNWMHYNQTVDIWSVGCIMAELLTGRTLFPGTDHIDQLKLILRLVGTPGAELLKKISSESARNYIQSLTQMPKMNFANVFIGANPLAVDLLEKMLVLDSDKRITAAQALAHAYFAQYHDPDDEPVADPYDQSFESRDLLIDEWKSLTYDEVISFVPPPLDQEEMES

[13] = molecular target: Vascular endothelial growth factor receptor 2 (Homo sapiens, UniProt P35968)
Chain of Vascular endothelial growth factor receptor 2 (P35968 whole entry): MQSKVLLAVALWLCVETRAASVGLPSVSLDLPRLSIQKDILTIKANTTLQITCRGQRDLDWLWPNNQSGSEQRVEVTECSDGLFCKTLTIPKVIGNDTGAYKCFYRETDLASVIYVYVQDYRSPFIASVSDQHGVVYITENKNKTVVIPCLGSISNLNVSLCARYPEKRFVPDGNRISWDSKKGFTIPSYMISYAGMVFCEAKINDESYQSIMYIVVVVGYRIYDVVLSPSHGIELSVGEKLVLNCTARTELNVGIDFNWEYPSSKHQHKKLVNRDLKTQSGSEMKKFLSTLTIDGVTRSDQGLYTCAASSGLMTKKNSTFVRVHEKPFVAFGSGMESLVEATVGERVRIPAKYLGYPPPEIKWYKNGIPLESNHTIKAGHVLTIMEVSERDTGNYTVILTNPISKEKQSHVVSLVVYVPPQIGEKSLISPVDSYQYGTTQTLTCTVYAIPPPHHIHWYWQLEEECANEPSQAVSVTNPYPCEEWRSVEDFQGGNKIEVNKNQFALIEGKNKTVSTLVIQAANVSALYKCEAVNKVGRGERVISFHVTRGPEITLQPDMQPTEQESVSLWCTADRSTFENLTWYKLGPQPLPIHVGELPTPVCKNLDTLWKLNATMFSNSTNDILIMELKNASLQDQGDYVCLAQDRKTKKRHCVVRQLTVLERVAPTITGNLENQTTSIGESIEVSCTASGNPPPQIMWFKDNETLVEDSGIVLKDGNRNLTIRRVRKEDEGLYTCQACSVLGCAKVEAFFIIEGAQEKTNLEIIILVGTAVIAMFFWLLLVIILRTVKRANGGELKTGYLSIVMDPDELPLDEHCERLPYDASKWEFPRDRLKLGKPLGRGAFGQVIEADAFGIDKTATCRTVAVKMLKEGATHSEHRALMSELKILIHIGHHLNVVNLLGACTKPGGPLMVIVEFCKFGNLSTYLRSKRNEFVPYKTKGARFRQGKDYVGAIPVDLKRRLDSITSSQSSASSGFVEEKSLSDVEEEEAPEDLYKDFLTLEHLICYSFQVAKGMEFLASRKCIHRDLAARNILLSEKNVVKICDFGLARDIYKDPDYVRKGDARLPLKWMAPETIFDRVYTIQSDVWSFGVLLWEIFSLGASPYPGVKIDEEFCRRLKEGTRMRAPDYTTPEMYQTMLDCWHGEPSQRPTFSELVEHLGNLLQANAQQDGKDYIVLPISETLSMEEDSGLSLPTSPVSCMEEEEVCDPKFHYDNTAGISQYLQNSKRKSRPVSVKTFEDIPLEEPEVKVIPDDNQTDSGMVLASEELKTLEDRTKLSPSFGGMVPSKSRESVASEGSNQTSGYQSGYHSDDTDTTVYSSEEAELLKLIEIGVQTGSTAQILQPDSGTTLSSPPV

[14] = molecular target: Tyrosine-protein kinase Lck (Homo sapiens, UniProt P06239)
Chain of Tyrosine-protein kinase Lck (P06239 whole entry): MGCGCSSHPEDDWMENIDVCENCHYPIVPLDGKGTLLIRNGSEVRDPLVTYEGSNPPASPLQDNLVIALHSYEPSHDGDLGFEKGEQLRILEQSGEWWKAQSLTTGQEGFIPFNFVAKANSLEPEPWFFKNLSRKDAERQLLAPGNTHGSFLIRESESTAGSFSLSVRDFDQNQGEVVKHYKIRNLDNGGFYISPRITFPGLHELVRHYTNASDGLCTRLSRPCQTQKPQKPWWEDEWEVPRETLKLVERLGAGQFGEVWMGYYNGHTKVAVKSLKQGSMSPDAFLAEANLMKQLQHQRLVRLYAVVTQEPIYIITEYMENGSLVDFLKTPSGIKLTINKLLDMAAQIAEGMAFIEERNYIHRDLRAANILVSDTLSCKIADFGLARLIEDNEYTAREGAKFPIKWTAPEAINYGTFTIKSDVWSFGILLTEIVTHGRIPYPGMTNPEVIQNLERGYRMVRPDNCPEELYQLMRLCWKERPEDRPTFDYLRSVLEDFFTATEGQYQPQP

Rattus norvegicus [15] = experiment: Antiinflammatory activity against collagen-induced arthritis in po dosed Lewis rat model assessed as inhibition of paw swelling; type: functional
Rattus norvegicus [16] = experiment: Antiinflammatory activity against collagen-induced arthritis Lewis rat model assessed as area under the paw swelling curve at 0.04 mg/kg, po relative to control; type: functional, organism-based; parameters: dose 0.04 mg/kg
[17] = molecular target: Tyrosine-protein kinase Lyn (Homo sapiens, UniProt P07948); experiment: Inhibition of Lyn
Chain of Tyrosine-protein kinase Lyn (P07948 whole entry): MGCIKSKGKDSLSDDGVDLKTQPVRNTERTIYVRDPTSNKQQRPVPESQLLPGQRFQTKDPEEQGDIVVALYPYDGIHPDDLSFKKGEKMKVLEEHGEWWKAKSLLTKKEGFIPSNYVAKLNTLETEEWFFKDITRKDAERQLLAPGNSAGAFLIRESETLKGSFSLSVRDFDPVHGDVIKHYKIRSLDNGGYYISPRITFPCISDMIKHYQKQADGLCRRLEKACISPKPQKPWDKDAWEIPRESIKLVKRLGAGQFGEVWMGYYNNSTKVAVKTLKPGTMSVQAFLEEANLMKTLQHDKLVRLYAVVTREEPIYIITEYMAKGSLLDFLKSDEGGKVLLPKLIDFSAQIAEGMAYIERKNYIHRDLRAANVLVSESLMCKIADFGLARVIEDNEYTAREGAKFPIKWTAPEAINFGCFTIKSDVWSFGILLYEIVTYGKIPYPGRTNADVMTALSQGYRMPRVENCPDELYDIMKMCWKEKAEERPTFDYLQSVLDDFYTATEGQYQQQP

[18] = Inhibition of PDGFR
Rattus norvegicus [19] = organism: Rattus norvegicus; experiment: Inhibition of LPS-induced TNFalpha production in Lewis rat; type: functional
[20] = Clearance in Sprague-Dawley rat 1 mg/kg, iv; type: ADME, organism-based; parameters: dose 1 mg/kg, route intravenous; details: in vivo
[21] = Volume of distribution at steady state in Sprague-Dawley rat 1 mg/kg, iv; type: ADME, organism-based; parameters: dose 1 mg/kg, route intravenous; details: in vivo, read-out: Vdss
[22] = Half life in Sprague-Dawley rat 1 mg/kg, iv; type: ADME, organism-based; parameters: dose 1 mg/kg, route intravenous; details: in vivo
[23] = AUC (0 to infinity) in Sprague-Dawley rat 1 mg/kg, po; type: ADME, organism-based; parameters: time infinity, dose 1 mg/kg, route oral; details: plasma
[24] = Oral bioavailability in Sprague-Dawley rat 1 mg/kg; type: ADME, organism-based; details: in vivo

Chain of Mitogen-activated protein kinase 9 (P45984 whole entry): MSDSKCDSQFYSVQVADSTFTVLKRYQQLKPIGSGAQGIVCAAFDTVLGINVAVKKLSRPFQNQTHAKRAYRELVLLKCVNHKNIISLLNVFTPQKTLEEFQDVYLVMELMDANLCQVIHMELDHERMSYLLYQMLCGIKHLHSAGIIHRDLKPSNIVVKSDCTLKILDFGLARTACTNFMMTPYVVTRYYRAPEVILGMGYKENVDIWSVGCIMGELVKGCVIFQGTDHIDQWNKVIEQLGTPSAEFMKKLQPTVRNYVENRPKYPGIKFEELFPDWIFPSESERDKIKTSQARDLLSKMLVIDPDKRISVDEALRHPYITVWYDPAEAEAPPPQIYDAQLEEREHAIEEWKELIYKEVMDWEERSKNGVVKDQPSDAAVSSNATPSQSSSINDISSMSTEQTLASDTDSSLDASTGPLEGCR
Chain of Mitogen-activated protein kinase 8 (P45983 whole entry): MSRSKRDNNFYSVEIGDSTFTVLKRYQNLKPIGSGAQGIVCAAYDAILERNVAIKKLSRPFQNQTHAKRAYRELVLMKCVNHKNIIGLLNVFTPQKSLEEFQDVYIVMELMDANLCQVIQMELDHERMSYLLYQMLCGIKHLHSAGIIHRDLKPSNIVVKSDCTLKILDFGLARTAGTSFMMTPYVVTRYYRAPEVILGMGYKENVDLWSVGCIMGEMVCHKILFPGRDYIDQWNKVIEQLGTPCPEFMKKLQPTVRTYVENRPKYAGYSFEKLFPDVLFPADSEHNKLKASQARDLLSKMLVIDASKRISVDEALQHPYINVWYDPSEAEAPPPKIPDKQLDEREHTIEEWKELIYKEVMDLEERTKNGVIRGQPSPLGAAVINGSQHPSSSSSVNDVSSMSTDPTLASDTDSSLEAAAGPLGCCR
Chain of Mast/stem cell growth factor receptor Kit (P10721 whole entry): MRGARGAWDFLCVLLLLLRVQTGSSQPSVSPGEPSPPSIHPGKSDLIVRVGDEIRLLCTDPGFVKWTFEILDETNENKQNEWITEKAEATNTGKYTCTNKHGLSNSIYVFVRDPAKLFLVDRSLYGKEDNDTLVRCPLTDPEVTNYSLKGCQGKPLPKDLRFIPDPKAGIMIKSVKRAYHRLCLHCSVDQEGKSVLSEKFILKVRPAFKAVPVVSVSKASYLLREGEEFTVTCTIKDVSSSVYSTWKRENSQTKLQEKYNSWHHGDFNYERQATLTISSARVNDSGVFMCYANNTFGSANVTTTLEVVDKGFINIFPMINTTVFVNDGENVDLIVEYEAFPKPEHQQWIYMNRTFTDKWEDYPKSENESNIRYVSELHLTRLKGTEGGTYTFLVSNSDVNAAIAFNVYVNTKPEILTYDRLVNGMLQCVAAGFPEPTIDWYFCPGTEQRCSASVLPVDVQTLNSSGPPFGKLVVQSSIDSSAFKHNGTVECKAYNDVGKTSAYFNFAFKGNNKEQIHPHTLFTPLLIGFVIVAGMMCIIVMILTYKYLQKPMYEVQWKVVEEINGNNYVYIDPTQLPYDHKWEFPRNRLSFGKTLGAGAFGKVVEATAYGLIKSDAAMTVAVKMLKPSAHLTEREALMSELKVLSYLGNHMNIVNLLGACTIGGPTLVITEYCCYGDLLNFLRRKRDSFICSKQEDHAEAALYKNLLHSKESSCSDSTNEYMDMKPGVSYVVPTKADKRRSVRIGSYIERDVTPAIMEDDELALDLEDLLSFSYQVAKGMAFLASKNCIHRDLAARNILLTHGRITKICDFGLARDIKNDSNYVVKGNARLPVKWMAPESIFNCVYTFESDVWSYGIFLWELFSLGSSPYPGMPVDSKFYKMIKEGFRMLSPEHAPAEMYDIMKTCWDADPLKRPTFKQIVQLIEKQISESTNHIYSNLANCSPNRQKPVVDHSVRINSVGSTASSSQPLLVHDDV

Compound | IC50 [1] | IC50 [2] | IC50 [3] | IC50 [4] | IC50 (THP-1) | IC50 (Blood) | clearance [7] | Vd [8] | half-life [9] | AUC(0-inf) [10] | bioavailability [11] | IC50 [12] | IC50 [13] | IC50 [14] | other results
Cc1ccc(C(=O)NC2CC2)cc1-c1ccc2c(NCCN3CCOCC3)nncc2c1 | 1060 nM | > 10000 nM | > 10000 nM | > 10000 nM | 24.9 nM | 4.3 nM | 20 mL/min/kg | 2.8 L/kg | 2.3 h | 39 ng·h/mL | 1% | 1.9 nM | 5140 nM | > 10000 nM | Papp A→B [5]: 0.3 ×10⁻⁶ cm/s; Papp B→A [6]: 31 ×10⁻⁶ cm/s
Cc1ccc(C(=O)NC2CC2)cc1-c1ccc2c(OC(C)C)nncc2c1 | 421 nM | > 10000 nM | 5950 nM | > 10000 nM | 0.4 nM | 1.6 nM | 13.3 mL/min/kg | 2.1 L/kg | 1.8 h | 10900 ng·h/mL | 92% | 0.6 nM | 1140 nM | 3610 nM | 
Cc1ccc(C(=O)NC2CC2)cc1-c1ccc2c(O[C@H](C)C(F)(F)F)nncc2c1 | 1170 nM | > 10000 nM | 4390 nM | 9490 nM | 0.9 nM | 8.1 nM |  |  |  |  |  | 0.8 nM | 505 nM | 6050 nM | 
O=C(NC1CC1)c1cccc(-c2ccc3c(N4CCOCC4)nncc3c2)c1 | > 8330 nM |  |  |  |  |  |  |  |  |  |  | 182 nM |  |  | 
Cc1ccc(C(=O)NC2CC2)cc1-c1ccc2c(N3CCOC[C@@H]3C)nncc2c1 | 2010 nM | > 10000 nM | 4830 nM | > 10000 nM | 1.1 nM | 1.2 nM | 13.3 mL/min/kg | 1.2 L/kg | 1.3 h | 7090 ng·h/mL | 57% | 1.1 nM | 8550 nM | > 10000 nM | 
Cc1ccc(C(=O)NC2CC2)cc1-c1ccc2c(O[C@@H](C)C(F)(F)F)nncc2c1 | 1060 nM | > 10000 nM | 7770 nM | > 10000 nM | 0.4 nM | 2.7 nM | 5.83 mL/min/kg | 4.7 L/kg | 9.9 h | 21100 ng·h/mL | 72% | 1 nM | 2680 nM | > 5000 nM | ED50 (Rattus norvegicus [15]): 0.04 mg/kg; AUC (Rattus norvegicus [16]): 51.1 ng·h/mL; IC50 [17]: 954 nM; IC50 [18]: 88 nM; ED50 (Rattus norvegicus [19]): < 0.03 mg/kg
Cc1ccc(C(=O)NC2CC2)cc1-c1ccc2c(-c3ccccc3)nncc2c1 | 149 nM | > 10000 nM | > 10000 nM | > 10000 nM | 0.8 nM | 3.5 nM |  |  |  |  |  | 2 nM | 6290 nM | 1340 nM | 
Cc1ccc(C(=O)NC2CC2)cc1-c1ccc2c(OC(C)C)cncc2c1 | 41 nM |  |  |  |  |  |  |  |  |  |  | 0.6 nM |  |  | 
Cc1ccc(C(=O)NC2CC2)cc1-c1ccc2c(N3CCOCC3)nncc2c1 | 529 nM | > 10000 nM | 9690 nM | > 10000 nM | 0.7 nM | 0.9 nM |  |  |  |  |  | 1.2 nM | 3040 nM | 3810 nM | clearance [20]: 28.3 mL/min/kg; Vd [21]: 3.5 L/kg; half-life [22]: 4.1 h; AUC(0-inf) [23]: 124 ng·h/mL; bioavailability [24]: 22%; Papp A→B [5]: 10.5 ×10⁻⁶ cm/s; Papp B→A [6]: 39.8 ×10⁻⁶ cm/s
Cc1ccc(C(=O)NC2CC2)cc1-c1ccc2c(-c3ccccc3C)nncc2c1 |  |  |  |  |  |  | 28.3 mL/min/kg | 1.8 L/kg | 1.4 h | 2330 ng·h/mL | 40% |  |  |  | 
